Source: patent publication US20240368122A1, “JAK2 INHIBITORS AND METHODS OF USE THEREOF” (RELAY THERAPEUTICS, INC., priority 2021, published 2024)

Experiments:
[1] = target: T1, JAK2 JH2 WT (V536-D812) [W659A, W777A, F794H solubilizing mutations] (Homo sapiens, UniProt O60674, F794H/W659A/W777A); assay: Surface Plasmon Resonance (SPR) binding assay, JAK2 JH2 domain
T1 construct: **JAK2 JH2 WT (V536-D812) [W659A, W777A, F794H solubilizing mutations]; C-thrombin-avi-His6; thrombin cleavage site (C); His6 (C); purchased Biortus
In short: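 Kinetics came from 1:1 fits of single-cycle runs at 20 °C: four 3-fold dilutions from 5 uM for JH1 or 500 nM for JH2, 60 s association, and 300 s or 1200 s dissociation respectively. Protein was freshly captured per compound in the presence of 10 uM stabilizer compound, with running buffer of pH 7.5 HEPES/NaCl/glycerol/DTT plus 2% DMSO.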

[2] = test system: TF1 JAK2 V617F STAT3 reporter; assay: Cellular TF1 STAT3 assay (luciferase reporter), JAK2 V617F; assay type: cell-based; settings: Homo sapiens, TF-1, TF1 cells, JAK2 V617F, read-out: Cell PD-TF1 JAK2 V617F STAT3 (IC50)
In short: (§1)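 Compounds were dispensed as 1000× DMSO stocks (10 mM top, 1:3 steps), then V617F JAK2 TF1 cells carrying a STAT3 or STAT5 luciferase reporter were added. After 18-20 h at 37 °C, ONE-glo reagent was added and luminescence measured.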

[3] = test system: TF1 JAK2 V617F STAT5 reporter; assay: Cellular TF1 STAT5 assay (luciferase reporter), JAK2 V617F; assay type: cell-based; settings: Homo sapiens, TF-1, TF1 cells, JAK2 V617F, read-out: Cell PD TF1 V617F STAT5 (IC50)
In short: as §1

T1 sequence (O60674 536-812 W659A/W777A/F794H): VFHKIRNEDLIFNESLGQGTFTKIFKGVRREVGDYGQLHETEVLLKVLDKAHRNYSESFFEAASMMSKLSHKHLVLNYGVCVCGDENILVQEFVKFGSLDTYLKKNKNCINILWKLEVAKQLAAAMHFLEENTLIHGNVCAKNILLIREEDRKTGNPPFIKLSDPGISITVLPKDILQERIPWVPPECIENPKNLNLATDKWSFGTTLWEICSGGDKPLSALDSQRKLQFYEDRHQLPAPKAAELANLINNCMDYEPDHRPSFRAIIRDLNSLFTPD

| SMILES | Kd [1] | IC50 [2] | IC50 [3] |
| --- | --- | --- | --- |
| CNC(=O)c1nnc(NC(=O)C2CC2)cc1Nc1cccc(-c2ccc(C(=O)N(C)Cc3cn(C(F)F)nc3C)nc2)c1OC [Compound 297] | 0.01 to 10 nM | 50 to 500 nM | 50 to 500 nM |
| CNC(=O)c1nnc(NC(=O)C2CC2)cc1Nc1cccc(-c2ccc(C(=O)N(C)Cc3cnn(C(F)F)c3C)nc2)c1OC [Compound 298] | 0.01 to 10 nM | 500 to 5000 nM | 500 to 5000 nM |
| CNC(=O)c1nnc(NC(=O)C2CC2)cc1Nc1cccc(-c2cnn(C3CN(Cc4ncccc4C(=O)N(C)C)C3)c2)c1OC [Compound 299] | 0.01 to 10 nM | 500 to 5000 nM | 500 to 5000 nM |
| CNC(=O)c1nnc(NC(=O)C2CC2)cc1Nc1cccc(-c2cnn(C3CN(Cc4cccc(C(C)(C)CO)n4)C3)c2)c1OC [Compound 300] | 0.01 to 10 nM | 50 to 500 nM | 50 to 500 nM |
| CNC(=O)c1nnc(NC(=O)C2CC2)cc1Nc1cccc(-c2cnn(C3CN(Cc4ncccc4C(F)(F)F)C3)c2)c1OC [Compound 302] | 0.01 to 10 nM | 500 to 5000 nM | 500 to 5000 nM |
| CNC(=O)c1nnc(NC(=O)C2CC2)cc1Nc1cccc(-c2cnn(C3CN(Cc4cccn5nccc45)C3)c2)c1OC [Compound 303] | 0.01 to 10 nM | 50 to 500 nM | 50 to 500 nM |
| CNC(=O)c1nnc(NC(=O)C2CC2)cc1Nc1cccc(-c2cnn(C3CN(Cc4cccc(S(C)(=O)=O)n4)C3)c2)c1OC [Compound 304] | 0.01 to 10 nM | 50 to 500 nM | 50 to 500 nM |
| CNC(=O)c1nnc(NC(=O)C2CC2)cc1Nc1cccc(-c2cnc(C3CN(Cc4cccc(C#N)n4)C3)nc2)c1OC [Compound 305] | 0.01 to 10 nM | 500 to 5000 nM | 500 to 5000 nM |
| CNC(=O)c1nnc(NC(=O)C2CC2)cc1Nc1cccc(-c2cnn(C3CN(Cc4cccc(C(C)O)n4)C3)c2)c1OC (stereo not drawn) [Compound 306] | 0.01 to 10 nM | 50 to 500 nM | 50 to 500 nM |
| CNC(=O)c1nnc(NC(=O)C2CC2)cc1Nc1cccc(-c2cnn(C3CN(Cc4cccc(C(C)=O)n4)C3)c2)c1OC [Compound 307] | 0.01 to 10 nM | 50 to 500 nM | 50 to 500 nM |
| CNC(=O)c1nnc(NC(=O)C2CC2)cc1Nc1cccc(-c2cnn(C3CN(Cc4cccc(C(O)C(C)C)n4)C3)c2)c1OC (stereo not drawn) [Compound 308] | 10 to 50 nM | 50 to 500 nM | 50 to 500 nM |
| CNC(=O)c1nnc(NC(=O)C2CC2)cc1Nc1cccc(-c2cnn(C3CN(Cc4cccc(C(=O)C(C)C)n4)C3)c2)c1OC [Compound 309] | 0.01 to 10 nM | 500 to 5000 nM | 50 to 500 nM |
| CNC(=O)c1nnc(NC(=O)C2CC2)cc1Nc1cccc(-c2cnn([C@@H]3CN(Cc4cccc(C#N)n4)[C@H]3C)c2)c1OC [Compound 310] | 0.01 to 10 nM | 500 to 5000 nM | 500 to 5000 nM |
| CNC(=O)c1nnc(NC(=O)C2CC2)cc1Nc1cccc(-c2cnn(C3CN(Cc4cccc(C(=O)N5CC(F)(F)C5)n4)C3)c2)c1OC [Compound 311] | 0.01 to 10 nM | 50 to 500 nM | 50 to 500 nM |
| CNC(=O)c1nnc(NC(=O)C2CC2)cc1Nc1cccc(-c2cnn(C3CN(Cc4cccc(C(=O)O)n4)C3)c2)c1OC [Compound 312] | 0.01 to 10 nM | 5000 to 100000 nM | 5000 to 100000 nM |
| CNC(=O)c1nnc(NC(=O)C2CC2)cc1Nc1cccc(-c2cnn(C3CN(Cc4cccc5nncn45)C3)c2)c1OC [Compound 313] | 10 to 50 nM | 500 to 5000 nM | 500 to 5000 nM |
| CNC(=O)c1nnc(NC(=O)C2CC2)cc1Nc1ccc(C)c(-c2cnc(C(=O)N(C)Cc3ncc(COC)s3)c(F)c2)c1OC [Compound 314] | 0.01 to 10 nM | 500 to 5000 nM | 50 to 500 nM |
| CNC(=O)c1nnc(NC(=O)C2CC2)cc1Nc1cccc(-c2ccc(C(=O)N(C)Cc3ncc(COC)s3)cc2)c1OC [Compound 316] | 0.01 to 10 nM | 500 to 5000 nM | 500 to 5000 nM |
| CNC(=O)c1nnc(NC(=O)C2CC2)cc1Nc1ccc(C)c(-c2ccc(C(=O)N(C)Cc3ncc(COC)s3)nc2)c1OC [Compound 317] | 0.01 to 10 nM | 500 to 5000 nM | 50 to 500 nM |
| CNC(=O)c1nnc(NC(=O)C2CC2)cc1Nc1cccc(-c2cnn([C@H]3CCN(Cc4cccc(C#N)n4)C3)c2)c1OC [Compound 319] | 0.01 to 10 nM | 50 to 500 nM | 50 to 500 nM |
| CNC(=O)c1nnc(NC(=O)C2CC2)cc1Nc1ccc(C)c(-c2ccc(C3CN(Cc4cccc(C#N)n4)C3)nc2)c1OC [Compound 320] | 0.01 to 10 nM | 500 to 5000 nM | 500 to 5000 nM |
| CNC(=O)c1nnc(NC(=O)C2CC2)cc1Nc1ccc(C)c(-c2ccc(C3CN(Cc4cc(C#N)ccn4)C3)nc2)c1OC [Compound 321] | 10 to 50 nM | 5000 to 100000 nM | 5000 to 100000 nM |

| SMILES | Kd [1] | IC50 [2] | IC50 [3] |
| --- | --- | --- | --- |
| CNC(=O)c1nnc(NC(=O)C2CC2)cc1Nc1ccc(C)c(-c2ccc(C3CN(Cc4ccccn4)C3)nc2)c1OC [Compound 322] | 10 to 50 nM | 5000 to 100000 nM | 5000 to 100000 nM |
| CNC(=O)c1nnc(NC(=O)C2CC2)cc1Nc1cccc(-c2cnn(C3CN(Cc4cccc(C=O)n4)C3)c2)c1OC [Compound 324] | 0.01 to 10 nM | 50 to 500 nM | 50 to 500 nM |
| CNC(=O)c1nnc(NC(=O)C2CC2)cc1Nc1cccc(-c2cnc(C3CN(Cc4ccccn4)C3)nc2)c1OC [Compound 325] | 0.01 to 10 nM | 5000 to 100000 nM | 5000 to 100000 nM |
| CNC(=O)c1nnc(NC(=O)C2CC2)cc1Nc1cccc(-c2cnc(C3CN(Cc4cccn(C)c4=O)C3)nc2)c1OC [Compound 326] | 10 to 50 nM | 5000 to 100000 nM | 5000 to 100000 nM |
| CNC(=O)c1nnc(NC(=O)C2CC2)cc1Nc1cccc(-c2cnc(C3CN(Cc4cccc5ncnn45)C3)nc2)c1OC [Compound 327] | 0.01 to 10 nM | 5000 to 100000 nM | 5000 to 100000 nM |
| CNC(=O)c1nnc(NC(=O)C2CC2)cc1Nc1cccc(-c2ccc(C3CN(Cc4cc(S(C)(=O)=O)ccn4)C3)nc2)c1OC [Compound 330] | 0.01 to 10 nM | 500 to 5000 nM | 500 to 5000 nM |
| CNC(=O)c1nnc(NC(=O)C2CC2)cc1Nc1cccc(-c2ccn(C3CN(Cc4cccc(C(F)F)n4)C3)n2)c1OC [Compound 331] | 0.01 to 10 nM | 500 to 5000 nM | 500 to 5000 nM |
| CNC(=O)c1nnc(NC(=O)C2CC2)cc1Nc1cccc(-c2ccc(C(=O)N(C)Cc3cc(C#N)cnn3)nc2)c1OC [Compound 332] | 0.01 to 10 nM | 500 to 5000 nM | 500 to 5000 nM |
| CNC(=O)c1nnc(NC(=O)C2CC2)cc1Nc1cccc(-c2cn(C3CN(C(C)C)C3)nc2CO)c1OC [Compound 335] | 50 to 500 nM | 5000 to 100000 nM | 5000 to 100000 nM |
| CNC(=O)c1nnc(NC(=O)C2CC2)cc1Nc1cccc(-c2cn(C3CN(C(C)C)C3)nc2C(C)O)c1OC (stereo not drawn) [Compound 336] | 50 to 500 nM | 5000 to 100000 nM | 5000 to 100000 nM |
| CNC(=O)c1nnc(NC(=O)C2CC2)cc1Nc1cccc(-c2cn(C3CN(Cc4cccc(C#N)n4)C3)nc2C(C)O)c1OC (stereo not drawn) [Compound 337] | 0.01 to 10 nM | 5000 to 100000 nM | 5000 to 100000 nM |
| CNC(=O)c1nnc(NC(=O)C2CC2)cc1Nc1cccc(-c2cn(C3CN(C(C)C)C3)nc2C(C)(C)O)c1OC [Compound 338] | 50 to 500 nM | 500 to 5000 nM | 5000 to 100000 nM |
| CNC(=O)c1nnc(NC(=O)C2CC2)cc1Nc1cccc(-c2cn(C3CN(Cc4cccc(C#N)n4)C3)nc2C(C)(C)O)c1OC [Compound 339] | 50 to 500 nM | 5000 to 100000 nM | 5000 to 100000 nM |
| CNC(=O)c1nnc(NC(=O)C2CC2)cc1Nc1ccc(C)c(-c2cnc(C(=O)N(C)Cc3cc(S(C)(=O)=O)ccn3)c(F)c2)c1OC [Compound 340] | 0.01 to 10 nM | 50 to 500 nM | 50 to 500 nM |
| CNC(=O)c1nnc(NC(=O)C2CC2)cc1Nc1cccc(-c2cn(C3CN(Cc4cccc(C(F)F)n4)C3)cn2)c1OC [Compound 341] | 0.01 to 10 nM | 50 to 500 nM | 50 to 500 nM |
| CNC(=O)c1nnc(NC(=O)OC2CC2)cc1Nc1cccc(-c2cnn(C3CN(Cc4ccccn4)C3)c2)c1OC [Compound 342] | 0.01 to 10 nM | 500 to 5000 nM | 500 to 5000 nM |
| CNC(=O)c1nnc(NC(=O)C2CC2)cc1Nc1cccc(-c2cnn(C3CN(Cc4cccc(C5COC5)n4)C3)c2)c1OC [Compound 343] | 0.01 to 10 nM | 50 to 500 nM | 50 to 500 nM |
| CNC(=O)c1nnc(NC(=O)C2CC2)cc1Nc1cccc(-c2cnn(C3CN(Cc4cc(C(F)F)cc(C#N)n4)C3)c2)c1OC [Compound 344] | 0.01 to 10 nM | 50 to 500 nM | 50 to 500 nM |
| CNC(=O)c1nnc(NC(=O)C2CC2)cc1Nc1ccc(C)c(-c2ccc(C(=O)N(C)Cc3cc(S(C)(=O)=O)ccn3)nc2)c1OC [Compound 347] | 0.01 to 10 nM | 50 to 500 nM | 50 to 500 nM |
| CNC(=O)c1nnc(NC(=O)C2CC2)cc1Nc1cccc(-c2cnn([C@H]3C[C@H](Cc4cccc(C#N)n4)C3)c2)c1OC [Compound 349] | 0.01 to 10 nM | 500 to 5000 nM | 500 to 5000 nM |
| CNC(=O)c1nnc(NC(=O)C2CC2)cc1Nc1cccc(-c2cnn(C3CN(Cc4cccc(C(C)(C)COC)n4)C3)c2)c1OC [Compound 351] | 0.01 to 10 nM | 500 to 5000 nM | 500 to 5000 nM |
